Data published in the NIST ThermoML archive (doi:10.1021/je5009679).

Conditions: Liquid; for viscosity: Concentric cylinders viscometry

CCCC[n+]1ccn(C)c1.O=S(=O)([N-]S(=O)(=O)C(F)(F)F)C(F)(F)F
101.33 kPa
Conditions | viscosity [mPa·s]
293.15 K | 63.41
303.15 K | 41.26
313.15 K | 28.46
323.15 K | 20.58
333.15 K | 15.47
343.15 K | 12
353.15 K | 9.562
363.15 K | 7.788
373.15 K | 6.469

Conditions | mass density [kg/m3]
293.15 K, 101.33 kPa, Vibrating tube method | 1440.9
303.15 K, 101.33 kPa, Vibrating tube method | 1431.6
311.8 K, 10000 kPa, Bellows volumetry | 1430.7
311.8 K, 20000 kPa, Bellows volumetry | 1437.5
311.8 K, 30000 kPa, Bellows volumetry | 1444.6
311.8 K, 40000 kPa, Bellows volumetry | 1451.2
311.8 K, 50000 kPa, Bellows volumetry | 1457.5
311.8 K, 60000 kPa, Bellows volumetry | 1463.6
311.8 K, 70000 kPa, Bellows volumetry | 1469.5
311.8 K, 80000 kPa, Bellows volumetry | 1475.2
311.8 K, 90000 kPa, Bellows volumetry | 1480.5
311.8 K, 100000 kPa, Bellows volumetry | 1485.7
311.8 K, 110000 kPa, Bellows volumetry | 1490.9
311.8 K, 120000 kPa, Bellows volumetry | 1496
311.8 K, 130000 kPa, Bellows volumetry | 1500.9
311.8 K, 140000 kPa, Bellows volumetry | 1505.6
311.8 K, 150000 kPa, Bellows volumetry | 1510.2
311.8 K, 160000 kPa, Bellows volumetry | 1514.8
311.8 K, 170000 kPa, Bellows volumetry | 1519.3
311.8 K, 180000 kPa, Bellows volumetry | 1523.5
311.8 K, 190000 kPa, Bellows volumetry | 1527.7
311.8 K, 200000 kPa, Bellows volumetry | 1531.8
313.15 K, 101.33 kPa, Vibrating tube method | 1422.1
323.15 K, 101.33 kPa, Vibrating tube method | 1412.6
331.9 K, 10000 kPa, Bellows volumetry | 1412.5
331.9 K, 20000 kPa, Bellows volumetry | 1420.1
331.9 K, 30000 kPa, Bellows volumetry | 1427.4
331.9 K, 40000 kPa, Bellows volumetry | 1434.5
331.9 K, 50000 kPa, Bellows volumetry | 1441.1
331.9 K, 60000 kPa, Bellows volumetry | 1447.6
331.9 K, 70000 kPa, Bellows volumetry | 1453.6
331.9 K, 80000 kPa, Bellows volumetry | 1459.5
331.9 K, 90000 kPa, Bellows volumetry | 1464.9
331.9 K, 100000 kPa, Bellows volumetry | 1470.5
331.9 K, 110000 kPa, Bellows volumetry | 1476
331.9 K, 120000 kPa, Bellows volumetry | 1481.1
331.9 K, 130000 kPa, Bellows volumetry | 1486.2
331.9 K, 140000 kPa, Bellows volumetry | 1491.2
331.9 K, 150000 kPa, Bellows volumetry | 1495.9
331.9 K, 160000 kPa, Bellows volumetry | 1500.5
331.9 K, 170000 kPa, Bellows volumetry | 1505.2
331.9 K, 180000 kPa, Bellows volumetry | 1509.6
331.9 K, 190000 kPa, Bellows volumetry | 1513.9
331.9 K, 200000 kPa, Bellows volumetry | 1518.3
333.15 K, 101.33 kPa, Vibrating tube method | 1403.4
343.15 K, 101.33 kPa, Vibrating tube method | 1394
352 K, 10000 kPa, Bellows volumetry | 1394
352 K, 20000 kPa, Bellows volumetry | 1402.4
352 K, 30000 kPa, Bellows volumetry | 1410
352 K, 40000 kPa, Bellows volumetry | 1417.4
352 K, 50000 kPa, Bellows volumetry | 1424.3
352 K, 60000 kPa, Bellows volumetry | 1431.2
352 K, 70000 kPa, Bellows volumetry | 1437.5
352 K, 80000 kPa, Bellows volumetry | 1443.8
352 K, 90000 kPa, Bellows volumetry | 1449.5
352 K, 100000 kPa, Bellows volumetry | 1455.3
352 K, 110000 kPa, Bellows volumetry | 1460.8
352 K, 120000 kPa, Bellows volumetry | 1466.3
352 K, 130000 kPa, Bellows volumetry | 1471.5
352 K, 140000 kPa, Bellows volumetry | 1476.5
352 K, 150000 kPa, Bellows volumetry | 1481.4
352 K, 160000 kPa, Bellows volumetry | 1486.3
352 K, 170000 kPa, Bellows volumetry | 1491
352 K, 180000 kPa, Bellows volumetry | 1495.8
352 K, 190000 kPa, Bellows volumetry | 1500.2
352 K, 200000 kPa, Bellows volumetry | 1504.7
353.15 K, 101.33 kPa, Vibrating tube method | 1384.8
363.15 K, 101.33 kPa, Vibrating tube method | 1375.6
372.2 K, 10000 kPa, Bellows volumetry | 1376.1
372.2 K, 20000 kPa, Bellows volumetry | 1384.9
372.2 K, 30000 kPa, Bellows volumetry | 1393.3
372.2 K, 40000 kPa, Bellows volumetry | 1401.1
372.2 K, 50000 kPa, Bellows volumetry | 1408.4
372.2 K, 60000 kPa, Bellows volumetry | 1415.5
372.2 K, 70000 kPa, Bellows volumetry | 1422.1
372.2 K, 80000 kPa, Bellows volumetry | 1428.4
372.2 K, 90000 kPa, Bellows volumetry | 1434.4
372.2 K, 100000 kPa, Bellows volumetry | 1440.3
372.2 K, 110000 kPa, Bellows volumetry | 1446.2
372.2 K, 120000 kPa, Bellows volumetry | 1452
372.2 K, 130000 kPa, Bellows volumetry | 1457.4
372.2 K, 140000 kPa, Bellows volumetry | 1462.6
372.2 K, 150000 kPa, Bellows volumetry | 1467.8
372.2 K, 160000 kPa, Bellows volumetry | 1472.5
372.2 K, 170000 kPa, Bellows volumetry | 1477.5
372.2 K, 180000 kPa, Bellows volumetry | 1482.1
372.2 K, 190000 kPa, Bellows volumetry | 1487
372.2 K, 200000 kPa, Bellows volumetry | 1491.4
373.15 K, 101.33 kPa, Vibrating tube method | 1366.7
392.4 K, 10000 kPa, Bellows volumetry | 1358.5
392.4 K, 20000 kPa, Bellows volumetry | 1367.8
392.4 K, 30000 kPa, Bellows volumetry | 1376.7
392.4 K, 40000 kPa, Bellows volumetry | 1385
392.4 K, 50000 kPa, Bellows volumetry | 1392.8
392.4 K, 60000 kPa, Bellows volumetry | 1400.2
392.4 K, 70000 kPa, Bellows volumetry | 1407.2
392.4 K, 80000 kPa, Bellows volumetry | 1414
392.4 K, 90000 kPa, Bellows volumetry | 1420.7
392.4 K, 100000 kPa, Bellows volumetry | 1426.6
392.4 K, 110000 kPa, Bellows volumetry | 1432.6
392.4 K, 120000 kPa, Bellows volumetry | 1438.2
392.4 K, 130000 kPa, Bellows volumetry | 1443.8
392.4 K, 140000 kPa, Bellows volumetry | 1449.2
392.4 K, 150000 kPa, Bellows volumetry | 1454.4
392.4 K, 160000 kPa, Bellows volumetry | 1459.3
392.4 K, 170000 kPa, Bellows volumetry | 1464.5
392.4 K, 180000 kPa, Bellows volumetry | 1469.2
392.4 K, 190000 kPa, Bellows volumetry | 1474.1
392.4 K, 200000 kPa, Bellows volumetry | 1478.8
412.1 K, 10000 kPa, Bellows volumetry | 1341.1
412.1 K, 20000 kPa, Bellows volumetry | 1351
412.1 K, 30000 kPa, Bellows volumetry | 1360.4
412.1 K, 40000 kPa, Bellows volumetry | 1369.2
412.1 K, 50000 kPa, Bellows volumetry | 1377.5
412.1 K, 60000 kPa, Bellows volumetry | 1385.1
412.1 K, 70000 kPa, Bellows volumetry | 1392.6
412.1 K, 80000 kPa, Bellows volumetry | 1399.6
412.1 K, 90000 kPa, Bellows volumetry | 1406.1
412.1 K, 100000 kPa, Bellows volumetry | 1412.5
412.1 K, 110000 kPa, Bellows volumetry | 1418.8
412.1 K, 120000 kPa, Bellows volumetry | 1424.8
412.1 K, 130000 kPa, Bellows volumetry | 1430.5
412.1 K, 140000 kPa, Bellows volumetry | 1436.2
412.1 K, 150000 kPa, Bellows volumetry | 1441.4
412.1 K, 160000 kPa, Bellows volumetry | 1446.8
412.1 K, 170000 kPa, Bellows volumetry | 1451.9
412.1 K, 180000 kPa, Bellows volumetry | 1456.9
412.1 K, 190000 kPa, Bellows volumetry | 1461.6
412.1 K, 200000 kPa, Bellows volumetry | 1466.6
